Broadly, the pIC50 is the IC50 on a negative log10 scale, so that one unit is a factor of ten.

pIC50: −log10 of the molar value.

The source of these data is patent publication US20250041279A1, “THERAPEUTIC MEDICINE FOR HEART DISEASE OR SKELETAL MUSCLE DISEASE” (SHIONOGI & CO., LTD., priority 2021, published 2025).

The target in one assay is recombinant human ACC2 (Homo sapiens (Human), UniProt O00763). The assay is described as follows: Measurement of inhibitory activity of human ACC2 (MALDI-TOF MS). The format is biochemical. The settings on record: read-out: IC50 hACC2. From the text:
A cDNA encoding human ACC2 protein (27 amino acid residues to 2458 amino acid residues from the N-terminus) was cloned from a human kidney cDNA library (Clontech Laboratories, Inc.), a His-tag sequence was introduced at the 5′ end, and then inserted into pFastBac1 (Invitrogen). A recombinant baculovirus was produced in accordance with the protocol for a Bac-to-Bac baculovirus expression system (Invitrogen), and Sf-9 cells were infected therewith to express human ACC2 protein. The recovered cells were crushed, filtered through a filter, and then subjected to Ni affinity chromatography and anion exchange chromatography. Fractions containing human ACC2 protein were collected to obtain recombinant human ACC2.
The recombinant human ACC1 and the recombinant human ACC2 obtained from the above Preparation Examples were preincubated in an assay buffer (50 mM HEPES-KOH (pH 7.4), 10 mM magnesium chloride, 6 to 10 mM potassium citrate, 4 mM glutathione reduced form, and 1.5 mg/ml bovine serum albumin) for 1 hour. […] Deprotonated ions of the substrate acetyl-CoA (AcCoA) and the reaction product malonyl-CoA (MalCoA) were detected, and the intensity of each signal was used to calculate a conversion rate to malonyl-CoA or succinyl-CoA, i.e., intensity of [MalCoA-H]—/(intensity of [MalCoA-H]-+intensity of [AcCoA.H].). […] The potassium citrate concentration in the assay buffer, the potassium bicarbonate concentration in the substrate solution, and the incubation time were adjusted within the above concentrations or reaction times for each lot of the enzyme to be used.

A further assay relates to Atgl knockout mice. Nature of the assay: Spontaneous motility of Atgl knockout mice. The format is in vivo. The settings on record: 45 mg/kg/10 mL repeated administration, 12 weeks of age, p<0.05, Welch's t test. The procedure: Atgl (adipose-triglyceride lipase) knockout mice are known as non clinical models of TGCV. Atgl knockout mice (KO mice) deficient in the Atgl gene were each produced by a known method.
In order to examine the influence of the compounds of the present invention on spontaneous motility, spontaneous motility of Atgl knockout mice was measured using SCANET MV-40 ([…]) at 12 weeks of age after repeated administration of vehicle or the compounds of the present invention to the Atgl knockout mice. The mice were allowed to stand in a cage placed in the device, and the motility thereof for 30 minutes was measured.

Another assay relates to SD rats. The assay is described as follows: Lipid in skeletal muscle cells (IMCL) in SD rats, MRS. It is filed as in vivo. To be noted: 20 mg/kg single oral, 24 hours after administration. On the procedure: In order to examine the influence of Compound I-13 on lipid in skeletal muscle cells (IMCL), 24 hours after a single oral administration of a vehicle or Compound I-13 (20 mg/kg) to SD rats, MR spectroscopy (MRS) data of the tibialis anterior muscle was measured using animal MRI (Varian MRI System 7T/210, Agilent Technologies) under isoflurane anesthesia. The measurement data was analyzed using software for quantitative analysis of MRS data (LCModel), and the quantity of IMCL was calculated as a creatine ratio.

The subject of assay [1] is leptin receptor deficient mice (db/db mice). The assay is described as follows: Lipid in skeletal muscle cells (IMCL) in diabetes model mice, MRS. To be noted: 15 mg/kg single oral, 6 hours after administration. The format is in vivo. On the procedure:
In order to examine the influence of Compound I-12 on lipid in skeletal muscle cells (IMCL) of diabetes model mice, 6 hours after a single oral administration of a vehicle or Compound I-12 (15 mg/kg) to leptin receptor deficient mice (Leprdb/Leprdb, db/db; db/db mice), MR spectroscopy (MRS) data of the tibialis anterior muscle was measured using animal MRI (Varian MRI System 7T/210, Agilent Technologies) under isoflurane anesthesia. The measurement data was analyzed using software for quantitative analysis of MRS data (LCModel), and the quantity of IMCL was calculated as a creatine ratio.

The next assay concerns ZDF rats. Nature of the assay: Lipid in skeletal muscle cells (IMCL) in diabetes model rats, MRS. It is filed as in vivo. The settings on record: oral twice a day (7 mg/kg then 10 or 23 mg/kg), 24 hours after first administration. The procedure: In order to examine the influence of Compound I-12 on lipid in skeletal muscle cells (IMCL) of diabetic model rats, vehicle or Compound I-12 was orally administered to a spontaneous diabetes model (ZDF rats) twice a day (first morning administration: 7 mg/kg; second afternoon administration: 10 or 23 mg/kg), and 24 hours after the first administration, MR spectroscopy (MRS) data of the tibialis anterior muscle were measured using animal MRI (Varian MRI System 7T/210, Agilent Technologies) under isoflurane anesthesia. The measurement data was analyzed using software for quantitative analysis of MRS data (LCModel), and the quantity of IMCL was calculated as a creatine ratio.

Sequence of recombinant human ACC2 (O00763 27-2458): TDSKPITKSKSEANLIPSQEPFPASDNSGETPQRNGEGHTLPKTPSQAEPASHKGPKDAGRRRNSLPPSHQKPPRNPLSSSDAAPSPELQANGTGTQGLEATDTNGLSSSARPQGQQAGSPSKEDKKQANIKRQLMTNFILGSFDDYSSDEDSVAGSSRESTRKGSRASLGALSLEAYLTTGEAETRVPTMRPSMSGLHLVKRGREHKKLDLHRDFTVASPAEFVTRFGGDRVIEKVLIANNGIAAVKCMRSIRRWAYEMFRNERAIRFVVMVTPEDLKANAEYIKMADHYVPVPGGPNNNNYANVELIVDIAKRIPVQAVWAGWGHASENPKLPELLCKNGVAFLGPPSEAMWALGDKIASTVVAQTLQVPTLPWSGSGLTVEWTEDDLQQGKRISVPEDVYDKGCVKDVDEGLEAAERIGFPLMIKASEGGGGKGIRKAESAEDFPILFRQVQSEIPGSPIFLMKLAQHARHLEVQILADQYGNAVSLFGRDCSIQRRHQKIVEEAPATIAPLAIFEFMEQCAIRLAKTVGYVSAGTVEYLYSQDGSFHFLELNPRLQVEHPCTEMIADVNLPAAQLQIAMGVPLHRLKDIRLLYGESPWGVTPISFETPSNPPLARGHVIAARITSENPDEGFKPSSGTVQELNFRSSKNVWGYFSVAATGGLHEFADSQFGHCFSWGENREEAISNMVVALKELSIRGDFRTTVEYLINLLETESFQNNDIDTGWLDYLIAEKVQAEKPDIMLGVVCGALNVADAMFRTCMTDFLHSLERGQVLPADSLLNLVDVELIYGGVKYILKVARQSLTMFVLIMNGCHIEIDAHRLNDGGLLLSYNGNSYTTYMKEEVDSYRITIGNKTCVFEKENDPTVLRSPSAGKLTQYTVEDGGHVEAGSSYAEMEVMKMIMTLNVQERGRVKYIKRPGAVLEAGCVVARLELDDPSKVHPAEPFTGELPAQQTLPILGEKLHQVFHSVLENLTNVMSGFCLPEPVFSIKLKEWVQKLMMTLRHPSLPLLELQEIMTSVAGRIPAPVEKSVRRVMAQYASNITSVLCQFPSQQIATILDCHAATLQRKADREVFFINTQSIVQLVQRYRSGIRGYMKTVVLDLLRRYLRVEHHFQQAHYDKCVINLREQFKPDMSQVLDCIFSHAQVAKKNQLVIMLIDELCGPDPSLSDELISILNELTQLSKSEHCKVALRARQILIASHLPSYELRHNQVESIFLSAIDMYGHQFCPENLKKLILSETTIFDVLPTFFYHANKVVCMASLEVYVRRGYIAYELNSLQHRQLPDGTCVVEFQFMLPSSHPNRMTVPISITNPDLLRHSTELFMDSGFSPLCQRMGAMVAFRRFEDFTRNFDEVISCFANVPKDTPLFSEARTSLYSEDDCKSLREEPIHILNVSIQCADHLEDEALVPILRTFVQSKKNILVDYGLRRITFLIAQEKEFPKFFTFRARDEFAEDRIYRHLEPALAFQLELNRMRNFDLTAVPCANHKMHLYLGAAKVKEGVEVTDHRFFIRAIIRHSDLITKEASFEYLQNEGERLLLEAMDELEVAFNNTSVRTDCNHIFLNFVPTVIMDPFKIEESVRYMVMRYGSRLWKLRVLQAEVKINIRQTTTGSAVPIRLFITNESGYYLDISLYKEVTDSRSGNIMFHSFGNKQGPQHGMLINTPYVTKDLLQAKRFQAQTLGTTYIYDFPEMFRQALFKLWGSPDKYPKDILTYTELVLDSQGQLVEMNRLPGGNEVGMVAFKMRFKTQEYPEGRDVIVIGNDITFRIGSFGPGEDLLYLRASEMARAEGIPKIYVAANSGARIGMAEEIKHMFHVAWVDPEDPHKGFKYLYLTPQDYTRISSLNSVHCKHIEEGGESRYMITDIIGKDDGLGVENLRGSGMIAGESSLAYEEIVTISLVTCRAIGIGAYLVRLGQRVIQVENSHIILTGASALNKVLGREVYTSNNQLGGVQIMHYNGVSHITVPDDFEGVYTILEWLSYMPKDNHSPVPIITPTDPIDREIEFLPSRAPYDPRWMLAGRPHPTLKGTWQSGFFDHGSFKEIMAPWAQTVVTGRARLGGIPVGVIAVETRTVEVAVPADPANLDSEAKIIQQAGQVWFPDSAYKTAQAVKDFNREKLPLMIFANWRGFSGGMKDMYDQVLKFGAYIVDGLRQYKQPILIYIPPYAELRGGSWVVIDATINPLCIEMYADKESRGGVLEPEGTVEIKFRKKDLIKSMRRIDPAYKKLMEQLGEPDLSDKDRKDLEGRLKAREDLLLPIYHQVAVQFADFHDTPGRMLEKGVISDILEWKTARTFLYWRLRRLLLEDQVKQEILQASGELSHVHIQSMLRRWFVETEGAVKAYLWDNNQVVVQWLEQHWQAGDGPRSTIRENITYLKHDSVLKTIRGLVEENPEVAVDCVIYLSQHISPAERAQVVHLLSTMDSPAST

`CC(=O)N[C@@H](C)CCC1OCC(Oc2nc3c(F)c(OC4CC4)ccc3n2C)CO1` (stereo partly drawn) [Compound I-13]: at recombinant human ACC2, the pIC50 is 8.18. Moreover, in the assay with Atgl knockout mice, the “spontaneous motility (30 minutes)” value is given as “significant improving effect”. Further, the “IMCL (creatine ratio), tibialis anterior muscle” value in the assay on SD rats is listed as “significant IMCL decreasing effect”.
On to `C[C@@H](COC1CCC(Oc2nc3c(F)cc(OC4CC4)cc3n2C)CC1)NC(N)=O` (stereo partly drawn) [Compound I-12], for which the pIC50 at recombinant human ACC2 was 8.25. In addition, the “IMCL (creatine ratio), tibialis anterior muscle” value (in assay [1]; in the assay with ZDF rats) was “significant IMCL decreasing effect” throughout.
